This is an account of results in patent US4650868A, “7-deazapurine derivatives useful as antitumor agents” (Takeda Chemical Industries, Ltd., priority 1984, dated 1987).

≈ marks a conversion by molar mass, not a printed value.

The test system of assay [1] is rat liver tRNA-guanine transglycosylase. Briefly: Uptake of the compound into [3H]guanine-labeled tRNA. Type of assay: biochemical. The conditions noted are these: 0.02 OD260 of compound, 37° C., 17 hours, [3H]guanine labeled tRNA (8000 cpm). As for the experimental part: [^3 H] guanine labeled tRNA*) (8000 cpm), 70 mM of […], 60 mM of magnesium chloride, 0.5 unit of rat liver tRNA-guanine transglycosylase and 0.02 OD260 of the compound obtained in Example 1 to be described hereinafter were prepared to the total volume of 100 μl, and the reaction was allowed to proceed at 37° C. for 17 hours. The reaction solution was applied to a Whatman 3 MM filter paper (produced by Whatman Co., U.S.A.), which was washed three times with a 5% aqueous solution of trichloroacetic acid and once successively with ethanol/ether (1:1) and ether alone.
(*) tRNA with the first letter of its anticodon labeled with [^3 H]-guanine.

The test system of the next assay is L5178Y mouse tumor cells. Briefly: Growth inhibition of cultured L5178Y cells. Format: cell-based. The settings on record: 72 hours incubation with drug, cell count, non-treated control = 100%, read-out: IC50 (50% growth inhibitory concentration). As for the experimental part:
1×10^4 L5178Y mouse tumor cells were suspended in 2 ml of a RPMI-1640 medium (produced by Nissui Pharmaceutical Co. of Japan) containing 10% of bovine fetal serum, 20 μM of 2-mercaptoethanol and 100 μg/ml of Kanamycin, and incubated at 37° C. for 24 hours before addition of the drug. Using the above culture fluid as a diluent, the compound as obtained in Example 3 to be described hereinafter was diluted 1/4-fold in a series of 5 stages and added to the culture medium in such a manner that the maximum concentration of the compound might be 200 μg/ml. The dilutions were further incubated for 72 hours, at the end of which time the cells were counted with use of a counter and the IC50 (50% growth inhibitory concentration) was calculated with the count for the non-treated control group being taken as 100%. The IC50 value was 2.0 μg/ml.

In another assay the test system is Meth A tumor cells. Description: Meth A tumor subcutaneously transplanted into BALB/c mouse. Format: in vivo. The conditions noted are these: 100 mg/kg intraperitoneally once a day for 14 consecutive days from day 4; tumor weight on 35th day after transplantation. As for the experimental part: 5×10^4 Meth A tumor cells were subcutaneously transplanted into a BALB/c mouse weighing 20 g, and starting with the fourth day after transplantation, a solution of the compound as obtained in Example 3 to be described hereinafter in 0.1 ml of distilled water prepared in such a way that a dose might be 100 mg/kg was intraperitoneally injected into the mouse once a day for 14 consecutive days. On the 35th day after transplantation, the tumor node was enucleated and its weight (T) was measured.

For `COc1ccccc1NCc1c[nH]c2nc(N)[nH]c(=O)c12` [Example 1, 2-amino-5-(2-methoxyphenylaminomethyl)pyrrolo[2,3-d]pyrimidin-4-one], in assay [1], the “uptake of the test compound into tRNA” value came to 120%. Still for that read-out and setting: next, `COc1cc(NCc2c[nH]c3nc(N)[nH]c(=O)c23)cc(OC)c1OC` [Example 2 (2), 2-Amino-5-(3,4,5-trimethoxyphenylaminomethyl)pyrrolo[2,3-d]pyrimidin 4-one]: 140%. In the case of `Nc1ccc(NCc2c[nH]c3nc(N)[nH]c(=O)c23)cc1` [Example 3, 2-amino-5-(4-aminophenylaminomethyl)pyrrolo[2,3-d]pyrimidin-4-one], in the assay with L5178Y mouse tumor cells, the IC50 turned out to be 2 µg/mL (≈ 7.4 µM). The “tumor inhibition rate (T/C)” value in the assay on Meth A tumor cells was found to be 36%.
